{
  "source": "paper PMC5430962",
  "about": "“Retro-inverso Urokinase Receptor Antagonists for the Treatment of Metastatic Sarcomas” (Scientific Reports, 2017)",
  "key": {"[1]": {"tested_on": "HT1080 cells", "test": "HT1080 cell migration toward 10% FBS in Boyden chambers", "type": "cell-based, human", "details": "10 nM peptide plus 10% FBS, 4 hr, means of three independent experiments in triplicate", "procedure": "Cell migration in Boyden chambers was carried out for 4 hr at 37 °C in humidified air with 5% CO2, as described. Briefly, cell suspension (1 × 10^5 viable cells/mL serum free medium) was seeded in each upper chamber. Lower chambers were filled with DMEM alone, DMEM containing RI peptides, 10 nM fMLF, or 10% FBS with/without RI peptides. The two compartments were separated by 8 μm pore size polycarbonate filters (Neuroprobe) coated with 2.5 µg/mL vitronectin (Corning). For the invasion assays, 8 μm pore size filters were coated with 50 μg/filter matrigel (BD Biosciences) as previously described[40] and cells (3 × 10^4 viable cells/well) were allowed to invade matrigel for 6 hr at 37 °C, 5% CO2. In all cases, at the end of the assay, cells on the lower filter surface were fixed with ethanol, stained with haematoxylin and 10 random fields/filter were counted at 200× magnification. Each experiment was performed three times in triplicate."}, "[2]": {"tested_on": "chondrosarcoma Sarc cells", "test": "Matrigel invasion kinetics, xCELLigence RTCA, Sarc", "type": "cell-based, human", "details": "10 nM, 10% FBS, 20 hr", "procedure": "This assay was performed using E-well plates and the xCELLigence RTCA technology as described. Bottom wells were coated with 20 µg/well matrigel diluted in serum free medium. Matrigel was allowed to polymerize for 1 hr at 37 °C prior to seeding cells (1 × 10^4 cells/well) suspended in growth medium plus/minus RI peptides. Cells that cross matrigel adhere to the bottom of plates causing impedance changes that are proportional to the number of invading cells, and are expressed as a cell index value. Matrigel invasion was monitored for 20 hr. The experiments were performed three times in quadruplicate."}, "[3]": {"biological_target": "T1, FPR1 (Homo sapiens, UniProt P21462)", "T1 construct": "expressed in transfected cells; host or cells: rat basophilic leukaemia RBL-2H3/ETFR cells (gift of F. Blasi)", "T1 sequence (P21462 1-350)": "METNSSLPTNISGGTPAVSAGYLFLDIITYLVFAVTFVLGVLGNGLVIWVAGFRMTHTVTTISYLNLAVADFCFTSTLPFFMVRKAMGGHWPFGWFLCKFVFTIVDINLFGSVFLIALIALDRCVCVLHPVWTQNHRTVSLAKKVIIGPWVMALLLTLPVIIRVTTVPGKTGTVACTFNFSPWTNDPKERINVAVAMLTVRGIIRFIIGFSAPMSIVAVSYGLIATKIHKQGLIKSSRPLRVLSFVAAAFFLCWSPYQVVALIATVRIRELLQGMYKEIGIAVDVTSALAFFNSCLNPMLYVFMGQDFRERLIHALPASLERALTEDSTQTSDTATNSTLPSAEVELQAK", "test": "Agonist-dependent FPR1 internalization, fluorescence microscopy in RBL-2H3/ETFR cells", "type": "cell-based", "details": "100 nM peptide 30 min at 37 °C, then 10 nM FITC-fMLF 30 min at 37 °C; confocal microscopy", "procedure": "Cells grown on glass slides to semi-confluence were exposed to diluents or the indicated unlabeled peptides for 30 min at 37 °C, then to 10 nM FITC-fMLF in PBS for additional 30 min at 37 °C and extensively rinsed with PBS. To visualize the cytoskeleton, the cells were fixed with 2.5% formaldehyde, permeabilized with 0.1% Triton X-100 for 10 min at 4 °C, and incubated with 0.1 µg/mL rhodamine-conjugated phalloidin (Sigma-Aldrich) for 40 min. In all cases, coverslips were mounted using 20% (w/v) Mowiol, visualized with a Zeiss 510META-LSM microscope (Carl Zeiss), and z-series were collected at 0.20 µm intervals."}, "[4]": {"tested_on": "Akt (Ser473) phosphorylation", "test": "Akt phosphorylation by Western blot in RBL-2H3/ETFR cells", "type": "cell-based, rat", "details": "0 to 10 minutes", "procedure": "RBL-2H3/ETFR grown to semi-confluence, were exposed to DMEM alone, 10 nM fMLF with/without 10 nM RI-3 at 37 °C in humidified air with 5% CO2. At the indicated times, cells were lysed in RIPA buffer and cell lysate protein content was measured by a colorimetric assay. Western blot analysis of AKT phosphorylation was performed as previously described using anti-phospho-Akt (Ser473) (pAKT) Ab (Cell Signaling) and anti-Akt mAb (R&D System). The effects of fMLF with/without 10 nM RI-3 were analyzed at the level of global kinase phosphorylation, using the dot-blot Proteome Profiler^TM Array Human PhosphoKinase Array Kit (R&D Systems), according to manufacturer’s instructions. Briefly, 300 µg of protein were applied on each membrane and the signals were detected as described for Western blot. The pixel density of each spot was measured using NIH Image 1.62 software. The intensity of positive control spots was used to normalize results between the four membranes. The intensity for each spot was then averaged over the duplicate spots."}, "[5]": {"tested_on": "GFP-tagged Sarc cells", "test": "Growth and spread of subcutaneous GFP-tagged Sarc tumors in nude mice", "type": "in vivo, Foxn1nu/nu female nude mice", "details": "five mice per group", "procedure": "To evaluate the effect of RI-3 on tumor growth and vascularization, Sarc cells were injected, as a single-cell suspension (1 × 10^6 cells in 100 µl of sterile PBS, 97% viability), subcutaneously in the flanks of sixteen six-eight weeks old, Foxn1nu/nu female nude mice (Harlan). Animals were randomized into two 8-mice groups with the treatment group receiving 6 mg/kg RI-3 by intra-peritoneal injection every 24 hr, and the control group receiving an equivalent injected volume of vehicle (PBS) only. Time-dependent average weight was monitored every two days. The length and the width of tumors were measured at different time points with a calliper and volumes were calculated using the formula: ½ × (width)[2] × length (mm). After 10 days, blood samples (at least 500 µL/mouse) from the retro-orbital venous plexus of mice anesthetized with 1% isoflurane were collected using a heparinized capillary tube and processed for determination of the Circulating Tumor Cells (CTCs). Then, the animals were sacrificed, the excised tumors were fixed in buffered formalin and processed for paraffin sectioning. Tumor vascularization was assessed by counting vascular channels harbouring red blood cells on CD31 immuno-stained sections in 5 randomly chosen fields per section, in at least two sections per tumor at x 200 as described. Two additional experiments were carried out with the same experimental design by injecting GFP-tagged Sarc cells (1 × 10^6 cells/mouse) subcutaneously in the flanks of twenty-five six-eight weeks old, Foxn1nu/nu female nude mice (Harlan). Animals were treated with 6 mg/kg RI-3, 6 mg/kg RERF or vehicle by intra-peritoneal injection every 24 hr for 10 or 12 days. Tumor growth and the appearance of positive tumor lesions near tumors and in lungs were monitored as brightly visualized by GFP fluorescence with a MacroFluo fluorescence stereomicroscope (Leica). We searched for the presence of GFP-positive nodules on the entire surface of freshly isolated lungs. Lungs were also sliced at approximately 3-mm thickness to examine the parenchyma in depth, and the positive nodules were acquired at higher magnification."}},
  "note": "[ ]: non-standard residue; d: D form. Aib = CC(C)(N)C(=O)O",
  "data": [
    {"substance": "Ac-[dY][dR][Aib][dR]-NH2 (SMILES CC(=O)N[C@H](Cc1ccc(O)cc1)C(=O)N[C@H](CCCNC(=N)N)C(=O)NC(C)(C)C(=O)N[C@H](CCCNC(=N)N)C(N)=O) [RI-3]", "values": [
      {"measurement": "reduction of FBS-directed cell migration", "setting": "[1]", "result": 57, "unit": "%"},
      {"measurement": "reduction of matrigel invasion (slope of cell index)", "setting": "[2]", "result": 47, "unit": "%"},
      {"measurement": "effect on agonist-dependent FPR1 internalization", "setting": "[3]", "result": "paucity of FPR1 internalization"},
      {"measurement": "effect on fMLF-induced Akt phosphorylation", "setting": "[4]; 10 nM fMLF with 10 nM peptide", "result": "consistently decreased"},
      {"measurement": "effect of peptide alone on Akt phosphorylation", "setting": "[4]; 10 nM, no fMLF", "result": "did not affect Akt phosphorylation"},
      {"measurement": "changes in body weight", "setting": "[5]; 6 mg/Kg i.p. every day for 12 days", "result": "did not cause changes in body weight"},
      {"measurement": "lungs with GFP-positive nodules (MacroFluo)", "setting": "[5]; 6 mg/Kg i.p. every day for 12 days, untreated 3/5", "result": "negative"},
      {"measurement": "volume of tumors after 12 days", "setting": "[5]; 6 mg/Kg i.p. every day for 12 days, vehicle 678 +/− 169", "result": "381 +/− 123 mm^3"},
      {"measurement": "animals with subcutaneous GFP-positive lesions distant at least one centimeter from the primary tumors", "setting": "[5]; set-up experiment, 6 mg/Kg i.p. every day, sacrifice after 12 days, vehicle 4/5", "result": "2/5"}
    ]}
  ]
}
